Measured values taken from ChEMBL document CHEMBL1123682, “5-Amino-4-(diazoacetyl)-1-beta-D-ribofuranosylimidazole, a new antileukemic agent” (J Med Chem, 1987).

Assays:
L1210 = experiment: Ability to inhibit growth of L1210 cells in culture was determined.; assay type: functional, cell-based; settings: Mus musculus, read-out: I50
HEp-2 = experiment: Ability to inhibit growth of human epithelial (H.Ep.-2) cells in culture; assay type: functional, cell-based; settings: read-out: I50

IC50 (L1210) [nM] | SMILES | IC50 (HEp-2) [nM]
> 120000 | CC(=O)c1ncn([C@@H]2O[C@H](CO)[C@@H](O)[C@H]2O)c1N | –
3000 | [N-]=[N+]=CC(=O)C1=NNC([C@@H]2O[C@H](CO)[C@@H](O)[C@H]2O)C1=N (stereo partly drawn) | 2000
